Measurements as given in EP0567613B1, “COMPOSITIONS FOR THERAPY AND PREVENTION OF CANCER” (The Government of the United States of America, as …, priority 1991, dated 1993).

Legend:
[1] = test system: premalignant 10T1/2 cells; experiment: cells
Method: C. Quantitation of adipocytosis. Lipids stained with Oil-Red O were extracted with butanol, and the optical density at 510 nm determined.
Lower: Quantitation of adipocytosis. Cells were fixed with 37% formaldehyde and stained with Oil-Red O. The stained intracellular lipid was extracted with butanol, and the optical density was determined using a Titertek Multiskan MC, manufactured by Flow Laboratories, at a wavelength 510 nm.

lung adenocarcinoma H661 = experiment: Tumor cell growth / proliferation; format: cell-based; details: Homo sapiens, NCI-H661; read-out: concentration causing about 50% inhibition of growth
Melanoma SK MEL 28 = experiment: Tumor cell growth / proliferation; format: cell-based; details: Homo sapiens

O=C([O-])Cc1ccccc1.[Na+] [NaPA, sodium phenylacetate]
cytotoxic effect ([1]; 800 µg/ml): totally free of cytotoxic effect | Differentiation at 1 mM ([1]; 1 mM, sodium salts): 65% | adipocyte conversion, share of the cell population ([1]; 10T1/2 model): over 80% | DC50 ([1]; Mus musculus, Adipocyte, read-out: DC50, concentration of compound causing 50% differentiation): 700 µM | IC50 (lung adenocarcinoma H661): 400 to 800 µg/mL | inhibition at 800 µg/mL (Melanoma SK MEL 28; read-out: % Inhibition by NaPA 0.8 mg/ml, 0.8 mg/ml): > 50% | IC50 (Melanoma SK MEL 28; read-out: concentration causing about 50% inhibition of growth): 400 to 800 µg/mL
